According to PubChem BioAssay (NCI):
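Five concentrations, 48 hours, 96-well plates. GI50 = concentration required for 50% inhibition of growth. Definition used: TGI = concentration required for complete inhibition of growth.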

Experiments:
Assay in all cases: NCI tumour cell line growth inhibition, 48 h
DLD-1 colon = test system: DLD-1 colon
DMS 273 small cell lung = test system: DMS 273 small cell lung
SW-620 colon = test system: SW-620 colon
XF 498 CNS = test system: XF 498 CNS
ACHN renal = test system: ACHN renal
BT-549 breast = test system: BT-549 breast
HS 578T breast = test system: HS 578T breast
M14 melanoma = test system: M14 melanoma
MDA-MB-435 = test system: MDA-MB-435
MDA-N = test system: MDA-N
SR leukemia = test system: SR leukemia
TK-10 renal = test system: TK-10 renal
T-47D breast = test system: T-47D breast

SMILES	TGI (DLD-1 colon) [µM]	TGI (DMS 273 small cell lung) [µM]	TGI (SW-620 colon) [µM]	TGI (XF 498 CNS) [µM]	TGI (ACHN renal) [µM]	TGI (BT-549 breast) [µM]	TGI (HS 578T breast) [µM]	TGI (M14 melanoma) [µM]	TGI (MDA-MB-435) [µM]	TGI (MDA-N) [µM]	TGI (SR leukemia) [µM]	TGI (TK-10 renal) [µM]	GI50 (ACHN renal) [µM]	GI50 (HS 578T breast) [µM]	GI50 (MDA-MB-435) [µM]	GI50 (SR leukemia) [µM]	GI50 (SW-620 colon) [µM]	GI50 (T-47D breast) [µM]	TGI (T-47D breast) [µM]	GI50 (TK-10 renal) [µM]
Cc1ccc(C#CS(=O)(=O)C(F)(F)F)cc1	> 100	> 100	> 100	> 100																
O=C(c1ccccc1O)c1cc(-c2ncc3c(=O)c4ccccc4oc3n2)c(-c2ccccc2O)[nH]c1=O	> 61.5	88.3	> 77.1	67.9																
N#Cc1ccc(C2Oc3ccc(Cl)cc3C=C2[N+](=O)[O-])cc1 (stereo not given)					3.06	1.13	47.6	2.73	3.56	3.19	1.61	3.38								
COc1ccc([C@H]2c3cc4c(cc3OC(O)(CO)[C@H]2C(=O)O)OCO4)c(OC)c1 (stereo not given in full) (tested in a mixture with another compound)	> 100	> 100	> 100	> 100	> 100			> 100			> 100	> 100								
COc1cc(/C(=C2/O[C@@H]([C@H]3COC(C)(C)O3)[C@H]3OC(C)(C)O[C@@H]23)c2ccc3c(c2)OCO3)cc(OC)c1OC			> 25		> 25		> 25		> 25		> 25	> 25	4.68	> 25	> 25	> 25	> 25	14.5	> 25	> 25
O=C1c2cc3c(cc2CC1Cc1ccc2c(c1)CCC2)CCC3 (stereo not given)			> 100		> 100	> 100	> 100	> 100	> 100	> 100	95.1	> 100							63.1	
CCCCOc1ccc2c(c1)CC[C@@H]1[C@@H]2CC[C@]2(C)C(=O)N(CCCC)C(=O)C[C@@H]12						> 100	> 100	> 100	> 100	> 100	> 100								> 100	
